Measurements reported in patent US20150272939A1, “Identification of Small Molecule Inhibitors of Jumonji AT-Rich Interactive Domain 1A (JARID1A) and 1B (JARID1B) Histone Demethylase” (Yale University, priority 2012, published 2015).
pIC50: −log10 of the molar value. Counter-ions that a name gives are not always drawn. Like-named read-outs stand apart in the source and are kept apart here.

Tests used:
JARID1B = biological target: T1, JARID1B (Homo sapiens, UniProt Q9UGL1); assay: FLAG-JARID1B histone demethylase assay with AlphaScreen detection (HTS and dose response); format: biochemical; settings: for Assay − Artifact Signal (percent): assay signal minus artifact signal; for inhibition at 20 µM: read-out: Inhibitory effect (percent); for Assay Signal (percent) / Validation result of HTS active: effect of the compound in the JARID1B AlphaScreen demethylase assay: validation of HTS actives; for Assay Signal (percent): effect of compound in JARID1B AlphaScreen assay; for Validation result of HTS active: effect of the compound in the JARID1B AlphaScreen demethylase assay: total signal before subtraction of artifact signal;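 on Assay Signal (percent): compound tested at 20 µM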;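 on Assay − Artifact Signal (percent): compound tested at 20 µM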;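 on all read-outs here: FLAG-tagged JARID1B at 4 nM acting on a biotinylated H3K4me3 peptide, demethylation read by AlphaScreen luminescence, with hits checked against bio-H3K4me2 without enzyme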
T1 construct: The FLAG tagged full length JARID1B enzyme was expressed in Sf21 insect cells using FLAG-JARID1B baculoviruses; FLAG (N); made in house; host or cells: Sf21 insect cells (baculovirus)
T1 sequence (Q9UGL1 whole entry): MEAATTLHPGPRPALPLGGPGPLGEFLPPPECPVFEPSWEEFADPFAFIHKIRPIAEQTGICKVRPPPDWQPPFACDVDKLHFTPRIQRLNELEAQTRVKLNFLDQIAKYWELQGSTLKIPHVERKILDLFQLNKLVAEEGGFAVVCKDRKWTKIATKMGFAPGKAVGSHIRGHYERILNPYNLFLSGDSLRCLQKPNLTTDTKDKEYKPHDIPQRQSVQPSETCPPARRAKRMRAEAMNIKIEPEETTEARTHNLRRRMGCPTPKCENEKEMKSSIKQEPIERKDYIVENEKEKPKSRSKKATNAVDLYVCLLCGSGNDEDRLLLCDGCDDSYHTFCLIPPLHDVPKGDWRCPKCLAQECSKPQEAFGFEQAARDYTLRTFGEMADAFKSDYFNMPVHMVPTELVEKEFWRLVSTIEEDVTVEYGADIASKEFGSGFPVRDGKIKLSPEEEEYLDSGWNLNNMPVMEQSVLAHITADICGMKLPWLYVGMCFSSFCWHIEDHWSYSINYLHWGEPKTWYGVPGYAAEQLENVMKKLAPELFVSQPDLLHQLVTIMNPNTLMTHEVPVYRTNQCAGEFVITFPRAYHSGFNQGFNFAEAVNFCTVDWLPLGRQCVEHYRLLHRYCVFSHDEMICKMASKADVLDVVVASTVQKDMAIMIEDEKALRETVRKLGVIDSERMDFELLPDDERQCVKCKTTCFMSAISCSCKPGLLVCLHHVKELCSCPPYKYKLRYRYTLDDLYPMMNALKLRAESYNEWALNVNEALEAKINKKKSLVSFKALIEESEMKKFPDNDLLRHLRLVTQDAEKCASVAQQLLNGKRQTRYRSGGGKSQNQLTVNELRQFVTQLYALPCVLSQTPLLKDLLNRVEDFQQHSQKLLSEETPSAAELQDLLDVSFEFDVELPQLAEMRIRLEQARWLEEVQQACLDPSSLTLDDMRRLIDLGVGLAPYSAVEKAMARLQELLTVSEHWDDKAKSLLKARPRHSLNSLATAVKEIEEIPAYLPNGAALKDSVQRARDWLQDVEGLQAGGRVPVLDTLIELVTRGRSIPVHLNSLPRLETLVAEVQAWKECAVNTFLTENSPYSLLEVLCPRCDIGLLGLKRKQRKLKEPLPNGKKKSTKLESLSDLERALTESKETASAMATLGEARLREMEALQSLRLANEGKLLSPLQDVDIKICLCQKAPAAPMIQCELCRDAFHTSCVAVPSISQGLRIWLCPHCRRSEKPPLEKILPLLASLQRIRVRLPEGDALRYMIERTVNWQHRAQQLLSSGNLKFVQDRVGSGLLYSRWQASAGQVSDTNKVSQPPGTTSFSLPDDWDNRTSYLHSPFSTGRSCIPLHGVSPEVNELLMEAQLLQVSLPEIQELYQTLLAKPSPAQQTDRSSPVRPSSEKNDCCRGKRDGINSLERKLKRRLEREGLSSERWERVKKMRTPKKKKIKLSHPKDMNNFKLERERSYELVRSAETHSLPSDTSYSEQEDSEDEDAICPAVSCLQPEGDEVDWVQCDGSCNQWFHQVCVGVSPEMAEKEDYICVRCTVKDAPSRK

[1] = AlphaScreen counterscreen against bio-H3K4me2 peptide in the absence of enzyme (artifact signal); settings: for Artifact Signal (percent): effect of the compound when incubated with bio-H3K4me2 peptide (counterscreen, no enzyme); for Artifact signal: effect of the compound when it is incubated with bio-H3K4me2 peptide: counterscreen, no enzyme;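 on all read-outs here: counterscreen run without enzyme against bio-H3K4me2 peptide to remove false positive hits from the JARID1 demethylase AlphaScreen screen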
[2] = high-throughput screen, compound 20 μM, standard demethylase conditions (10 μM α-KG, 50 μM Fe (II))
[3] = high-throughput screen, compound 20 μM, IDs marked *: additional hits under reaction condition with 1 mM α-KG
[4] = dose response at 15 μM (low) Fe (II), read-out: IC50 (μM) low Fe (II)
[5] = dose response at 50 μM (high) Fe (II), read-out: IC50 (μM) high Fe (II)

Assay − Artifact Signal (percent) (JARID1B) [%]	inhibition at 20 µM (JARID1B; [2]) [%]	Assay Signal (percent) (JARID1B) [%]	Artifact Signal (percent) [1] [%]	Molecule	other results
104.16	90.8	97.21	−6.95	Cn1c(C(C#N)=Cc2ccncc2)nc2ccccc21 (single isomer, unassigned) [YU146842]	
14.43	56.9	31.41	16.98	Cc1c(C(=O)O)cccc1-c1ccc(C=C[N+](=O)[O-])o1 (single isomer, unassigned) [YU147801]	
	33.8			Cn1c(SCC=Cc2ccccc2)nnc1-c1cnccn1 (single isomer, unassigned) [YU151184]	Validation result of HTS active: effect of the compound in the JARID1B AlphaScreen demethylase assay (JARID1B): 1.02; Artifact signal: effect of the compound when it is incubated with bio-H3K4me2 peptide [1]: −5.59
8.98	101	100.32	91.35	COc1cc(C=C[N+](=O)[O-])ccc1OCc1cccc(C(=O)O)c1 (single isomer, unassigned) [YU153545]	
			0.79	Cc1ccccc1C(OCCN(C)C)c1ccccc1 (stereo not drawn) [YU033938, ORPHENADRINE CITRATE, reference compound]	
	41.4			O=c1c2ccccc2[se]n1-c1ccccc1 [YU034226, EBSELEN, reference compound]	inhibition at 20 µM (JARID1B; [3]): 56.5%
	64.4			Cc1cc(/C=C/c2ccc3cc(N(C)C)ccc3[n+]2C)c(C)n1-c1ccccc1 [YU034547, PYRVINIUM PAMOATE, reference compound]	Validation result of HTS active: effect of the compound in the JARID1B AlphaScreen demethylase assay (JARID1B): −3.96
	49.6			Cn1c(=O)n(C)c2cc(S(=O)(=O)NNc3ccccc3)ccc21 [YU152899]	
	44.6			O=C(Nc1ccc(N2Cc3ccccc3OC(c3ccccc3)C2)c(C(=O)O)c1)c1ccccc1F (stereo not drawn) [YU208215]	

The remaining lines, values behind:

Molecule	Assay − Artifact Signal (percent) (JARID1B) [%]	inhibition at 20 µM (JARID1B; [2]) [%]	Assay Signal (percent) (JARID1B) [%]	Artifact Signal (percent) [1] [%]	other results
N#CC(=CC=Cc1ccco1)C(N)=S (single isomer, unassigned) [YU144893]	22.61	44.6	62.72	40.11	
C=CCOc1c(Cl)cc(C=C[N+](=O)[O-])cc1OCC (single isomer, unassigned) [YU148636]	11.11	34.7	10.64	−0.47	
Cc1ccc(C(C#N)=Cc2ccc(N3CCOCC3)o2)cc1 (single isomer, unassigned) [YU149607]	37.94	43.1	40.44	2.50	
N#CC(=Cc1ccc(N2CCCCC2)o1)c1ccc([N+](=O)[O-])cc1 (single isomer, unassigned) [YU152765]	9.56	42	11.96	2.40	
N#CC(=Cc1ccncc1)c1nc2cc(C(F)(F)F)ccc2s1 (single isomer, unassigned) [YU153803]	99.03	90.8	93.75	−5.27	
N#CC(=Cc1ccc(O)c(O)c1)C(N)=O (single isomer, unassigned) [YU154833, TYRPHOSTIN 46, reference compound]	46.11	76.8	50.42	4.32	
N#CC(=Cc1ccc(O)c(O)c1)C(N)=S (single isomer, unassigned) [YU154834, TYRPHOSTIN 47, reference compound]	21.75	46.5	40.23	18.48	
Cn1nnnc1SCC1=C(C(=O)O)N2C(=O)[C@H](NC(=O)C(O)c3ccccc3)C2SC1 (stereo in doubt) [YU034265, CEFAMANDOLE SODIUM, reference compound]					inhibition at 20 µM (JARID1B; [3]): 40.5%
O=C(OC[C@H]1O[C@@H](OC(=O)c2cc(O)c(O)c(OC(=O)c3cc(O)c(O)c(O)c3)c2)[C@H](OC(=O)c2cc(O)c(O)c(OC(=O)c3cc(O)c(O)c(O)c3)c2)[C@@H](OC(=O)c2cc(O)c(O)c(OC(=O)c3cc(O)c(O)c(O)c3)c2)[C@@H]1OC(=O)c1cc(O)c(O)c(OC(=O)c2cc(O)c(O)c(O)c2)c1)c1cc(O)c(O)c(OC(=O)c2cc(O)c(O)c(O)c2)c1 (stereo in doubt) [YU155507, TANNIC ACID, reference compound]					Inhibitory effect (percent) (JARID1B; [2]): 105.46%
O=C(O)/C=C/c1ccc(O)c(O)c1 [Caffeic acid, reference compound]					IC50 (JARID1B; [4]): 1.71 µM; IC50 (JARID1B; [5]): 2.88 µM
Cn1c(/C(C#N)=C/c2ccncc2)nc2ccccc21 [ChemBridge 6339039]					IC50 (JARID1B; [4]): 1.8 µM; IC50 (JARID1B; [5]): 1.31 µM
N#C/C(=C\c1ccncc1)c1nc2cc(C(F)(F)F)ccc2s1 [ChemBridge 7812182]					IC50 (JARID1B; [4]): 1.66 µM; IC50 (JARID1B; [5]): 1.15 µM
O=c1c2ccccc2[se]n1-c1ccccc1 [Ebselen, ebselen, reference compound]					pIC50 (JARID1B; Fe (II) concentration not stated, read-out: IC50 against JARID1B): ~5.22; IC50 (JARID1B; [4]): 7.63 µM; IC50 (JARID1B; [5]): 5.17 µM
O=c1ccc2cc(O)c(O)cc2o1 [Esculetin, esculetin, reference compound]					IC50 (JARID1B; [4]): 2.57 µM; IC50 (JARID1B; [5]): 4.6 µM
CC(C)(O)[C@@H]1[C@H]2OC(=O)[C@@H]1[C@]1(O)C[C@H]3O[C@]34C(=O)O[C@H]2[C@]14C [YU033619, PICROTIN, reference compound]					inhibition at 20 µM (JARID1B): 46.9%; Validation result of HTS active: effect of the compound in the JARID1B AlphaScreen demethylase assay (JARID1B): −12.66
CC(=O)O[C@H]1C[C@@]2(C)[C@@H](C[C@@H](O)[C@H]3[C@@]4(C)CC[C@@H](O)[C@@H](C)[C@@H]4CC[C@@]32C)/C1=C(\CCC=C(C)C)C(=O)O [YU033837, FUSIDIC ACID, reference compound]		63.1			Validation result of HTS active: effect of the compound in the JARID1B AlphaScreen demethylase assay (JARID1B): 0.93

Molecule	Assay − Artifact Signal (percent) (JARID1B) [%]	inhibition at 20 µM (JARID1B; [2]) [%]	Assay Signal (percent) (JARID1B) [%]	Artifact Signal (percent) [1] [%]	other results
c1ccc2c(c1)CCCC2C1=NCCN1 (stereo not drawn) [YU034020, TETRAHYDROZOLINE HYDROCHLORIDE, reference compound]					inhibition at 20 µM (JARID1B; [3]): 99.2%; Validation result of HTS active: effect of the compound in the JARID1B AlphaScreen demethylase assay (JARID1B): −5.13
C[CH2][Hg][S]c1ccccc1C(=O)[O-] [YU034023, THIMEROSAL, reference compound]					Artifact signal: effect of the compound when it is incubated with bio-H3K4me2 peptide [1]: −5.81
CC(=O)[O][Hg][c]1ccccc1 [YU034074, PHEN[…], ACETATE, reference compound]					Artifact signal: effect of the compound when it is incubated with bio-H3K4me2 peptide [1]: −10.79
O=C1c2c(O)ccc(O)c2C(=O)c2c(NCCNCCO)ccc(NCCNCCO)c21 [YU034420, MITOXANTHRONE HYDROCHLORIDE, reference compound]	10.55	101	99.87		
OC1CCCCC1N1CCC(c2ccccc2)CC1 (stereo not drawn) [YU034447, VESAMICOL HYDROCHLORIDE, reference compound]	8.85		8.67		inhibition at 20 µM (JARID1B): 40.5%
CC[C@H]1OC(=O)[C@H](C)[C@@H](OC2CC(C)(OC)C(O)C(C)O2)[C@H](C)[C@@H](S2(C)(=O)NC3C(N(C)C)CC(C)NC32)[C@](C)(O)C[C@@H](C)/C(=N\C)[C@H](C)[C@@H](O)[C@]1(C)O (stereo partly drawn) [YU035181]				4.88	
Cc1cc(C)nc(N(C#N)C(=S)N(C)C)n1 [YU145655]		54.7			
O=C(O[C@@H]1Cc2c(O)cc(O)cc2O[C@@H]1c1ccc(O)c(O)c1)c1cc(O)c(O)c(O)c1 [YU155085, EPICATECHIN MONOGALLATE, reference compound]		99.5			
O=C(O[C@@H]1Cc2c(O)cc(O)cc2O[C@@H]1c1cc(O)c(O)c(O)c1)c1cc(O)c(O)c(O)c1 [YU155090, EPIGALLOCATECHIN-3- MONOGALLATE, reference compound]					Inhibitory effect (percent) (JARID1B; [2]): 98.42%
COc1cccc2c1C(=O)c1c(O)c3c(c(O)c1C2=O)C[C@@](O)(C(C)=O)C[C@@H]3O[C@H]1C[C@H](N)[C@H](O)[C@H](C)O1 [YU155188, DAUNORUBICIN, reference compound]		74.7			
O=c1c(O)c(-c2ccc(O)c(O)c2)oc2c(O[C@@H]3O[C@H](CO)[C@@H](O)[C@H](O)[C@H]3O)c(O)cc(O)c12 [YU155353, GOSSYPIN, reference compound]		89			
O=c1c2cc(O)c(O)cc2oc2cc(O)c([C@@H]3O[C@H](CO)[C@@H](O)[C@H](O)[C@H]3O)c(O)c12 [YU155356, MANGIFERIN, reference compound]		98.8			
O=c1ccc2cc(O)c(O)cc2o1 [YU155534, ESCULETIN, reference compound]				6.30	
Cc1noc2c1C(c1ccc(O)c(O)c1)C1=C(CCCC1=O)N2 (stereo not drawn) [YU185529]		61.5			
Cl.Oc1cc2c(cc1O)[C@H]1c3ccccc3CN[C@@H]1CC2 [YU221065, Benzo[a]phenanthridine-10,11-diol, 5,6,6a,7,8,12b-hexahydro-, trans-, reference compound]	55.73	49.1	59.95		
TYROTHRICIN [YU034048, reference compound]					Inhibitory effect (percent) (JARID1B; [2]): 68.66%
